# Where two headings read alike, the source gives them in different places.
# Columns and labels:
# EGFR L858R/T790M = EGFR L858R/T790M (Homo sapiens, UniProt P00533, L858R/T790M); experiment: Kinase inhibitory activity against EGFR bearing the L858R/T790M double mutation; format: biochemical; settings: 10 μM ATP, read-out: IC50 for kinase inhibition, EGFR L858R T790M
# Summary of the method: (§1)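 ATP was held at 10 μM while inhibition was measured across a 10-point series capped at 3 μM, single replicates.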
# [1] = system: BaF3 cells expressing wildtype EGFR; experiment: Antiproliferative activity (MTT) against control BaF3 cells expressing wildtype EGFR; format: cell-based; settings: Mus musculus
# Summary of the method: (§2)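 MTT read-out; BaF3 lines carrying EGFR mutations vs wildtype-EGFR BaF3 control.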
# [2] = target: human EGFR (native sequence) (Homo sapiens, UniProt P00533); experiment: Kinase inhibitory activity against human EGFR (native sequence); format: biochemical; settings: 10 μM ATP, read-out: IC50 for kinase inhibition, EGFR
# Summary of the method: as §1
# [3] = target: T1, BaF3 cells expressing the target EGFR mutations (Homo sapiens, UniProt P00533, T790M, cells depend on it, form not given); experiment: Antiproliferative activity (MTT) against BaF3 cells expressing the target EGFR mutations; format: cell-based; settings: BAF3 EGFR DEL T790M PURO POOL cells, read-out: IC50, BAF3 EGFR DEL T790M PURO POOL
# T1 construct: IC50, BAF3 EGFR DEL T790M PURO POOL; other: BAF3 EGFR DEL T790M PURO POOL cells, MTT; other: BAF3 EGFR DEL T790M PURO POOL cells; MTT
# Summary of the method: as §2
# [4] = target: T2, BaF3 cells expressing the target EGFR mutations (Homo sapiens, UniProt P00533, T790M/L858R, cells depend on it); experiment: as above; format: cell-based; settings: BAF3 EGFR L858R-T790M PURO POOL cells, read-out: IC50, BAF3 EGFR L858R-T790M PURO POOL
# T2 construct: IC50, BAF3 EGFR L858R-T790M PURO POOL; other: BAF3 EGFR L858R-T790M PURO POOL cells, MTT; IC50, BAF3 EGFR L858R-T790M PURO POOL; other: BAF3 EGFR L858R-T790M PURO POOL cells; MTT
# Summary of the method: as §2
# EGFR L858R = EGFR L858R (Homo sapiens, UniProt P00533, L858R); experiment: Kinase inhibitory activity against EGFR bearing the L858R mutation; format: biochemical; settings: 10 μM ATP, read-out: IC50 for kinase inhibition, EGFR L858R
# Summary of the method: as §1
# [5] = EGFR L858R/T790M double mutation
# [6] = 10 pt curves, 3 μM top concentration
# human EGFR (native sequence), sequence (P00533 25-1210): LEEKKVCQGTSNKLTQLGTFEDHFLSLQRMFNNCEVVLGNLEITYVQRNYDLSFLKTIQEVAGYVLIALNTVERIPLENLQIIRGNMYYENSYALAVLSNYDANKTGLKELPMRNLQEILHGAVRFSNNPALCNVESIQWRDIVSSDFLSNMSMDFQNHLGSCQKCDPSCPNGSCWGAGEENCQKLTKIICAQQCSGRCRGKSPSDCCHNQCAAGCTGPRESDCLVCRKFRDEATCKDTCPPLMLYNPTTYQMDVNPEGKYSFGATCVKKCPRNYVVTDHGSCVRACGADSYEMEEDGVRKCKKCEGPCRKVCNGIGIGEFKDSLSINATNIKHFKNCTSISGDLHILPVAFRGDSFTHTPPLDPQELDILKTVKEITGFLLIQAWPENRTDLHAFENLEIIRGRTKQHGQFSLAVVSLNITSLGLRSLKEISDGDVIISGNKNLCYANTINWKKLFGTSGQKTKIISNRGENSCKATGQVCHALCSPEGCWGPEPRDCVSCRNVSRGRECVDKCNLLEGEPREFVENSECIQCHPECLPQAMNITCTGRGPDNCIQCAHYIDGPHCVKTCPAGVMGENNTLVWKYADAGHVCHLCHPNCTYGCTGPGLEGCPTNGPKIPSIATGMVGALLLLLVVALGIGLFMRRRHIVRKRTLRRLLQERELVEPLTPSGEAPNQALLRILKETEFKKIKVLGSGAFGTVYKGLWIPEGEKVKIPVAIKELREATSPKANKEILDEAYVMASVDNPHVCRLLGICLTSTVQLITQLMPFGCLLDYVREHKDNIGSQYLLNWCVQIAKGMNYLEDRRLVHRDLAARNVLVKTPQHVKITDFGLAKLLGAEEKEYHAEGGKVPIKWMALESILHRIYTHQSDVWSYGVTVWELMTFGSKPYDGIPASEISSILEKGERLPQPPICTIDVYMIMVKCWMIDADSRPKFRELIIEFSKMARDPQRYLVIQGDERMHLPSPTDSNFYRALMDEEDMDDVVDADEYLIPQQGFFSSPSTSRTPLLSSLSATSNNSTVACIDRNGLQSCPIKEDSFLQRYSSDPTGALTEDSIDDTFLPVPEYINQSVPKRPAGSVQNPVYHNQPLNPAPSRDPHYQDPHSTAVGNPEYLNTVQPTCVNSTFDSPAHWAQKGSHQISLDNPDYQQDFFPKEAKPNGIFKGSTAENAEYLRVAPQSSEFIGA
# T2 sequence (P00533 whole entry T790M/L858R): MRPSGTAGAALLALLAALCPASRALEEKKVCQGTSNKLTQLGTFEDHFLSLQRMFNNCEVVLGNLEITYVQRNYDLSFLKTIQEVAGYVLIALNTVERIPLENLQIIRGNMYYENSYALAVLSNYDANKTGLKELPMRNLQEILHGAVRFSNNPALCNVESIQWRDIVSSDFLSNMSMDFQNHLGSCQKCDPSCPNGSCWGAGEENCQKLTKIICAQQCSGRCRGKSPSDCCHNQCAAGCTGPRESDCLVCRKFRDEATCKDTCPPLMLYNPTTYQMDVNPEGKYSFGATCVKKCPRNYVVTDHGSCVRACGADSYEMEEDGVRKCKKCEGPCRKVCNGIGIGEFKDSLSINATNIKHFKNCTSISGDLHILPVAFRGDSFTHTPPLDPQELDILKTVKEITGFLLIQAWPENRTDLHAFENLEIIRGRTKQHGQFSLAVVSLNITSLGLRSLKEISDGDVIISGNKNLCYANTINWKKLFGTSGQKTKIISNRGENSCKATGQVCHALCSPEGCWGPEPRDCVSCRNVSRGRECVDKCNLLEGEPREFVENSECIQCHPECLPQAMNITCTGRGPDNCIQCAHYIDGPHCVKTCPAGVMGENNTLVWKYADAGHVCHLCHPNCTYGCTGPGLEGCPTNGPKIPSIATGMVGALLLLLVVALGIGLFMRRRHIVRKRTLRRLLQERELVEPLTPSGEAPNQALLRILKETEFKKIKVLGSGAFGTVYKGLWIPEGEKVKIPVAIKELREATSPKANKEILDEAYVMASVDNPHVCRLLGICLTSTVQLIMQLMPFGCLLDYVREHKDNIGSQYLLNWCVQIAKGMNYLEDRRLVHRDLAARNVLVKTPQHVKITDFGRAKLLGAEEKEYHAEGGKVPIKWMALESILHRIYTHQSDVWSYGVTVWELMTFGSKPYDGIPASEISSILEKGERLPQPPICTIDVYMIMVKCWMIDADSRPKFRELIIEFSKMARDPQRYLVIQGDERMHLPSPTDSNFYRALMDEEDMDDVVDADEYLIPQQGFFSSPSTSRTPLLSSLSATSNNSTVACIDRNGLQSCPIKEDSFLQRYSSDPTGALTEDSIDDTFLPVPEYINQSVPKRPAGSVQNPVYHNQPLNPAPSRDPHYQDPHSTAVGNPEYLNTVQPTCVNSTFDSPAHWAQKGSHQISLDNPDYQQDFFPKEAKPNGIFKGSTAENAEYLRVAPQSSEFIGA
# T1 sequence (P00533 with tags, fused parts or gaps DEL746-750/T790M, form open): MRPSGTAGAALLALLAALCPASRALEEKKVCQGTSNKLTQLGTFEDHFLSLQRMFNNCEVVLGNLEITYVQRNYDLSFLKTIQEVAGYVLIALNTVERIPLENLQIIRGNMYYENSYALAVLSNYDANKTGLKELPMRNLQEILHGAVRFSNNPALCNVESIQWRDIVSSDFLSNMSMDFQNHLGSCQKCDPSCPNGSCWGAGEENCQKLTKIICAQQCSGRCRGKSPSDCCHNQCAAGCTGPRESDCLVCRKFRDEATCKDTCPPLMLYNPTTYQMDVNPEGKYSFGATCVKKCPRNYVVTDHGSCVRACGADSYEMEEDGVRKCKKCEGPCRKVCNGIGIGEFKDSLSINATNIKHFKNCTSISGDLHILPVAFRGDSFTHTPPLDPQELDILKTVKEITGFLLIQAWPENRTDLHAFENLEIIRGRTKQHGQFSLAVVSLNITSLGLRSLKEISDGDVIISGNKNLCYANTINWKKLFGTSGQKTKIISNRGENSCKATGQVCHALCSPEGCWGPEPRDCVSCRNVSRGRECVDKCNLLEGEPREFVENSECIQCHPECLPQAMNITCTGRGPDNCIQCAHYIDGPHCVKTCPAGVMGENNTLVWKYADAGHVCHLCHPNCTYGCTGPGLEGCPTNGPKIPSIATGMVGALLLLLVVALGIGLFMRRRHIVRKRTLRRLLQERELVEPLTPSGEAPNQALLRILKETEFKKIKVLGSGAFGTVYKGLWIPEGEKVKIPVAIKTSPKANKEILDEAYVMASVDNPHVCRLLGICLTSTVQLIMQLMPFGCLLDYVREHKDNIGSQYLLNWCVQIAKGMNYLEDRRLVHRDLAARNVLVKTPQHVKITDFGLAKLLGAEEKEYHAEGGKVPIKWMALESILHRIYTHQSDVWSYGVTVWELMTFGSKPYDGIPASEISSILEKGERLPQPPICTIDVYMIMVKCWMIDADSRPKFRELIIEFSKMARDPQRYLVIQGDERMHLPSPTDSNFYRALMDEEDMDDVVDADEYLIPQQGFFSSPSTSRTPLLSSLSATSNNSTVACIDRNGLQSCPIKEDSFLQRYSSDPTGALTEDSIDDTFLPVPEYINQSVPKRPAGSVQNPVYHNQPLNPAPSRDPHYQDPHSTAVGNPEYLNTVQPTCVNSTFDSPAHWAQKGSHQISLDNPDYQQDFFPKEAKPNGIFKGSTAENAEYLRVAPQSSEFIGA
# EGFR L858R/T790M, sequence (P00533 25-1210 T790M/L858R): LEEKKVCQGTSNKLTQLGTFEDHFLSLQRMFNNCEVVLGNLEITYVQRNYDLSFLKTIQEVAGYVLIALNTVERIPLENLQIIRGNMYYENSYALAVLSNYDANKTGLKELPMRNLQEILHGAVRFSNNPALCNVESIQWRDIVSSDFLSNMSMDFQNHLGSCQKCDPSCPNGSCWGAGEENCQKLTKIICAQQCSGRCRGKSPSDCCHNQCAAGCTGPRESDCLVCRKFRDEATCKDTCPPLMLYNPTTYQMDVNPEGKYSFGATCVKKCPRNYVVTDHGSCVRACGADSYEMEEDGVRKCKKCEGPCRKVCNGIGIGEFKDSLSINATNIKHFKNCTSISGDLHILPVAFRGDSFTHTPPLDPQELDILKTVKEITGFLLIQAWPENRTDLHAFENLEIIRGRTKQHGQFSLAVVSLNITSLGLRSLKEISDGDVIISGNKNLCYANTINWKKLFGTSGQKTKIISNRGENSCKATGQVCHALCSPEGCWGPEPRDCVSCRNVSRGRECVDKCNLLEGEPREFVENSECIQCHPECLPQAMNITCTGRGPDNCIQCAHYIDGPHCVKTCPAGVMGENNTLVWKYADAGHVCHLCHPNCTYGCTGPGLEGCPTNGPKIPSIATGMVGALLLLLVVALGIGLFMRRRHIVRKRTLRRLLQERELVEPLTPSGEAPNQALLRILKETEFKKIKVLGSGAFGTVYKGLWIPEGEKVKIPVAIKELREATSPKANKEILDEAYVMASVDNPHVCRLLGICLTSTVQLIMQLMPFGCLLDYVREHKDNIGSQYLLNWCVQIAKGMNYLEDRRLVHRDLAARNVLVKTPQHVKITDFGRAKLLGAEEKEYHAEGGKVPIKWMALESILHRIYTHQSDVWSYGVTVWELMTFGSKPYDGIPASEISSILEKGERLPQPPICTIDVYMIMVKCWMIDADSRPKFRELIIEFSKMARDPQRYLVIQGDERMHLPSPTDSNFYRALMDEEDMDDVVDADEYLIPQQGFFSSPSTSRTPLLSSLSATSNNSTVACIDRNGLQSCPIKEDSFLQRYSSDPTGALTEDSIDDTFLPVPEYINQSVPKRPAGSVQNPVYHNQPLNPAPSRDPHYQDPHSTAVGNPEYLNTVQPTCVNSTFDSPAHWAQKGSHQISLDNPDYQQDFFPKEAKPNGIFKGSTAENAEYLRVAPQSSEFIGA
IC50 (EGFR L858R/T790M; [5]),IC50 ([2]; human EGFR native sequence),GI50 [3],GI50 [4],IC50 (EGFR L858R; EGFR L858R),IC50 (EGFR L858R/T790M; [6]),"IC50 [2, 6]",IC50 (EGFR L858R; [6]),Structure (SMILES),IC50 ([1]; BAF3 PARENTAL cells (control)),IC50 ([1]; BAF3 parental cells)
< 50 nM,< 50 nM,50 to 100 nM,50 to 100 nM,< 50 nM,–,–,–,"C=CC(=O)Nc1cc(Nc2ncc(Cl)c(Nc3ccccc3P(C)(C)=O)n2)c(OC)cc1N1CCC(N2CCN(C)CC2)CC1 [Example 22, N-(5-((5-chloro-4-((2-(dimethylphosphoryl)phenyl)amino)pyrimidin-2-yl)amino)-4-methoxy-2-(4-(4-methylpiperazin-1-yl)piperidin-1-yl)phenyl)acrylamide]",≥ 250 nM,–
–,–,50 to 100 nM,101 to 250 nM,–,< 50 nM,≥ 250 nM,< 50 nM,"CNC(=O)/C=C/C(=O)Nc1ccc(OC)c(Nc2ncc(Cl)c(Nc3ccccc3P(C)(C)=O)n2)c1 [Example 109, N1-(3-((5-chloro-4-((2-(dimethylphosphoryl)phenyl)amino)pyrimidin-2-yl)amino)-4-methoxyphenyl)-N4-methylfumaramide]",–,≥ 250 nM
< 50 nM,< 50 nM,< 50 nM,< 50 nM,< 50 nM,–,–,–,"C=CC(=O)Nc1cc(Nc2ncc(Cl)c(Nc3ccccc3P(C)(C)=O)n2)c(OC)cc1N1CCC(N(C)C)C1 (stereo not drawn) [Example 24, N-(5-((5-chloro-4-((2-(dimethylphosphoryl)phenyl)amino)pyrimidin-2-yl)amino)-2-(3-(dimethylamino)pyrrolidin-1-yl)-4-methoxyphenyl)acrylamide]",≥ 250 nM,–
< 50 nM,< 50 nM,< 50 nM,< 50 nM,< 50 nM,–,–,–,"C=CC(=O)Nc1cc(Nc2ncc(Cl)c(Nc3ccccc3P(C)(C)=O)n2)c(OC)cc1N1CCC(N(C)CCOC)C1 (stereo not drawn) [Example 41, N-(5-((5-chloro-4-((2-(dimethylphosphoryl)phenyl)amino)pyrimidin-2-yl)amino)-4-methoxy-2-(3-((2-methoxyethyl)(methyl)amino)pyrrolidin-1-yl)phenyl)acrylamide]",≥ 250 nM,–
–,–,< 50 nM,< 50 nM,–,< 50 nM,< 50 nM,< 50 nM,"C=CC(=O)Nc1ccc(CC)c(Nc2ncc(Cl)c(Nc3ccccc3P(C)(C)=O)n2)c1 [Example 135, N-(3-((5-chloro-4-((2-(dimethylphosphoryl)phenyl)amino)pyrimidin-2-yl)amino)-4-ethylphenyl)acrylamide]",–,≥ 250 nM
–,–,≥ 250 nM,≥ 250 nM,–,≥ 250 nM,≥ 250 nM,≥ 250 nM,"C=CC(=O)Nc1ccc(OC2COC2)c(Nc2ncc(Cl)c(Nc3ccccc3P(C)(C)=O)n2)c1 [Example 138, N-(3-((5-chloro-4-((2-(dimethylphosphoryl)phenyl)amino)pyrimidin-2-yl)amino)-4-(oxetan-3-yloxy)phenyl)acrylamide]",–,≥ 250 nM
≥ 250 nM,≥ 250 nM,≥ 250 nM,≥ 250 nM,≥ 250 nM,–,–,–,"COc1ccc(NC(=O)/C=C/C2(NC(=O)OC(C)(C)C)CC2)cc1Nc1ncc(Cl)c(Nc2ccccc2P(C)(C)=O)n1 [Example 76, (E)-tert-butyl (1-(3-((3-((5-chloro-4-((2-(dimethylphosphoryl)phenyl)amino)pyrimidin-2-yl)amino)-4-methoxyphenyl)amino)-3-oxoprop-1-en-1-yl)cyclopropyl)carbamate]",≥ 250 nM,–
< 50 nM,≥ 250 nM,≥ 250 nM,≥ 250 nM,< 50 nM,–,–,–,"COc1ccc(NC(=O)C2=CCCN(C)C2)cc1Nc1ncc(Cl)c(Nc2ccccc2P(C)(C)=O)n1 [Example 84, N-(3-((5-chloro-4-((2-(dimethylphosphoryl)phenyl)amino)pyrimidin-2-yl)amino)-4-methoxyphenyl)-1-methyl-1,2,5,6-tetrahydropyridine-3-carboxamide]",≥ 250 nM,–

# Further lines, the compound ahead of its results:
Structure (SMILES),IC50 (EGFR L858R/T790M; [5]),IC50 ([2]; human EGFR native sequence),GI50 [3],GI50 [4],IC50 (EGFR L858R; EGFR L858R),IC50 (EGFR L858R/T790M; [6]),"IC50 [2, 6]",IC50 (EGFR L858R; [6]),IC50 ([1]; BAF3 PARENTAL cells (control)),IC50 ([1]; BAF3 parental cells)
"C=CC(=O)Nc1cc(Nc2ncc(Cl)c(Nc3ccccc3P(C)(C)=O)n2)c(OC)cc1C#CCN1CCCCCC1 [Example 165, N-(2-(3-(azepan-1-yl)prop-1-yn-1-yl)-5-((5-chloro-4-((2-(dimethylphosphoryl)phenyl)amino)pyrimidin-2-yl)amino)-4-methoxyphenyl)acrylamide]",–,–,< 50 nM,< 50 nM,–,< 50 nM,< 50 nM,< 50 nM,–,≥ 250 nM
"COc1cc(N2CCOCC2)c(NC(=O)C#CCCN2CCN(C)CC2)cc1Nc1ncc(Cl)c(Nc2ccccc2P(C)(C)=O)n1 [Example 118, N-(5-((5-chloro-4-((2-(dimethylphosphoryl)phenyl)amino)pyrimidin-2-yl)amino)-4-methoxy-2-morpholinophenyl)-5-(4-methylpiperazin-1-yl)pent-2-ynamide]",–,–,< 50 nM,< 50 nM,–,< 50 nM,< 50 nM,< 50 nM,–,≥ 250 nM
"C=CC(=O)Nc1cc(Nc2ncc(Cl)c(Nc3ccccc3P(C)(C)=O)n2)c(Cl)cc1OC(COC)CN(C)C (stereo not drawn) [Example 145, N-(4-chloro-5-((5-chloro-4-((2-(dimethylphosphoryl)phenyl)amino)pyrimidin-2-yl)amino)-2-((1-(dimethylamino)-3-methoxypropan-2-yl)oxy)phenyl)acrylamide]",–,–,< 50 nM,< 50 nM,–,< 50 nM,< 50 nM,< 50 nM,–,≥ 250 nM
"C=CC(=O)Nc1cc(Nc2ncc(Cl)c(Nc3ccccc3P(C)(C)=O)n2)c(OC)cc1N1CCC(N2CCCN(C)CC2)CC1 [Example 71, N-(5-((5-chloro-4-((2-(dimethylphosphoryl)phenyl)amino)pyrimidin-2-yl)amino)-4-methoxy-2-(4-(4-methyl-1,4-diazepan-1-yl)piperidin-1-yl)phenyl)acrylamide]",< 50 nM,< 50 nM,50 to 100 nM,101 to 250 nM,< 50 nM,–,–,–,≥ 250 nM,–
"C=CC(=O)Nc1cc(Nc2ncc(Cl)c(Nc3ccccc3P(C)(C)=O)n2)c(OC)cc1OCCN1CCCC1 [Example 1, N-(5-((5-chloro-4-((2-(dimethylphosphoryl)phenyl)amino)pyrimidin-2-yl)amino)-4-methoxy-2-(2-(pyrrolidin-1-yl)ethoxy)phenyl)acrylamide]",< 50 nM,< 50 nM,< 50 nM,< 50 nM,< 50 nM,–,–,–,≥ 250 nM,–
"CC#CC(=O)Nc1cc(Nc2ncc(Cl)c(Nc3ccccc3P(C)(C)=O)n2)c(OC)cc1OCCN1CCCC1 [Example 80, N-(5-((5-chloro-4-((2-(dimethylphosphoryl)phenyl)amino)pyrimidin-2-yl)amino)-4-methoxy-2-(2-(pyrrolidin-1-yl)ethoxy)phenyl)but-2-ynamide]",< 50 nM,≥ 250 nM,< 50 nM,101 to 250 nM,< 50 nM,–,–,–,≥ 250 nM,–
"C=CC(=O)Nc1cc(Nc2ncc(Cl)c(Nc3ccccc3P(C)(C)=O)n2)c(OC)cc1N1CCC(N2CCCCC2)CC1 [Example 69, N-(2-([1,4′-bipiperidin]-1-yl)-5-((5-chloro-4-((2-(dimethylphosphoryl)phenyl)amino)pyrimidin-2-yl)amino)-4-methoxyphenyl)acrylamide]",< 50 nM,< 50 nM,< 50 nM,< 50 nM,< 50 nM,–,–,–,≥ 250 nM,–
"C=CC(=O)Nc1cc(Nc2ncc(C3CC3)c(Nc3ccccc3P(C)(C)=O)n2)c(OC)cc1N(C)CCN(CC)CC [Example 120, N-(5-((5-cyclopropyl-4-((2-(dimethylphosphoryl)phenyl)amino)pyrimidin-2-yl)amino)-2-((2-(diethylamino)ethyl)(methyl)amino)-4-methoxyphenyl)acrylamide]",–,–,< 50 nM,< 50 nM,–,< 50 nM,< 50 nM,< 50 nM,–,≥ 250 nM
"C=CC(=O)Nc1cc(Nc2ncc(Cl)c(Nc3ccccc3P(C)(C)=O)n2)c(OC)cc1OCC1CCN(C)CC1 [Example 3, N-(5-((5-chloro-4-((2-(dimethylphosphoryl)phenyl)amino)pyrimidin-2-yl)amino)-4-methoxy-2-((1-methylpiperidin-4-yl)methoxy)phenyl)acrylamide]",< 50 nM,50 to 100 nM,101 to 250 nM,≥ 250 nM,< 50 nM,–,–,–,≥ 250 nM,–

# Reference: US9834571B2, “Compounds for inhibiting cell proliferation in EGFR-driven cancers” (ARIAD Pharmaceuticals, Inc., priority 2012, dated 2017)
